PMC8591201, “Anti-Tumor Activity of AZD4547 Against NTRK1 Fusion Positive Cancer Cells Through Inhibition of NTRKs” (Frontiers in Oncology, 2021)

Columns and labels:
Assay in all cases: cells
Design in all cases: Anti-proliferation, 10-point dose response, CellTiter-Glo luminescence (MTT stated for KM12(Luc)), GI50 fitted in Prism
8505C = details: Homo sapiens, 8505C, 72 h, read-out: GI50 (µM) a
Description: (§1) To obtain the GI50 value of a substance, cell viability was measured using MTT (G4000, Promega, USA) for KM12(Luc) cell and Cell titer glo (G7572, Promega, USA) for other cell lines. For adherent cells, cells were seeded at 5,000 cells/well in a 96-well plate and treated with a substance one day after cell seeding. For suspension cells, 10,000 cells/well were seeded and the substance was treated after 4 h stabilization of cells. The substance was treated at 10 points of 1:3 serial dilution (0–100 µmol/L) for 72 h. For MTT assay, 15 µL dye solution was added to each well and incubated 4 h at 37°C. 100 µL of solubilization solution was added and followed 1 hr incubation. Absorbance at 570 nm of each well was recorded using EnVision microplate reader (Perkin Elmer). For Cell titer glo assay, Cell titer glo reagent was treated in each well and measured the luminescence by EnVision microplate reader (Perkin Elmer). Viable cells in each well were normalized by using 0.5% DMSO-treated wells (100%). The inhibitor dose−response curve was fitted and GI50 values were calculated using Prism 7.0 software (GraphPad). All assays were performed in duplicate and the standard deviation (SD) was determined from two independent experiments. KM12(Luc) was purchased from the JCRB cell bank. KM12 (Luc) was used within 6 months after purchase and the DNA profiles were confirmed using a short tandem repeat (STR) analysis by the Korean Cell Line Bank. KM12(Luc) cells were maintained in DMEM supplemented with 10% FBS and antibiotics. Parental Ba/F3 cells were purchased from DSMZ and were grown in RPMI1640 supplemented with 10% FBS and antibiotics in the presence of IL3, Transformed Ba/F3 cell lines were grown in the same media without IL3. Cells used in this study were negative for mycoplasma contamination. AN3-CA, HEC1A, U138, 8505C, MKN28, MKN45, A172, A375, Capan-1 HeLa, HEP3B, MCF-7 and MIA-paca-2 cells were maintained in DMEM (Welgene, Korea) supplemented with 10% FBS and antibiotics (Welgene, Korea). Otherwise, all cells were maintained in RPMI (Welgene, Korea) supplemented with 10% FBS and antibiotics (Welgene, Korea). To identify AZD4547 sensitive cell lines other than FGFR-mutant driven cancer cells, GI50 values were determined for AZD4547 against 64 different cancer cell lines, including AN3-CA used as a positive control ( Figure 1A and Table S1 ). […] Also, inhibitory activity of AZD4547 against DDR1 or FLT3 allows suppression of proliferation of U-2-OS and MV4-11 ([43]). Therefore, our attention focused on the inhibitory activity of AZD4547 against KM12(Luc) cell lines which have the TPM3-NTRK1 fusion gene. To exclude the possibility that the anti-proliferation activity of AZD4547 against KM12(Luc) is a common characteristic of FGFR inhibitors, we determined if BGJ398, a representative FGFR inhibitor, is also capable of suppressing proliferation of KM12(Luc) cells ( Figure 1B ).

HuH-7 = details: Homo sapiens, Huh-7, 72 h, read-out: GI50 (µM) a
Description: as §1

NCI-H1975 = details: Homo sapiens, NCI-H1975, 72 h, read-out: GI50 (µM) a
Description: as §1

GIST-T1 = details: Homo sapiens, GISTT1, 72 h, read-out: GI50 (µM) a
Description: as §1

C8161 = details: Homo sapiens, C8161, 72 h, read-out: GI50 (µM) a
Description: as §1

MDA-MB-468 = details: Homo sapiens, MDA-MB-468, 72 h, read-out: GI50 (µM) a
Description: as §1

MV-4-11 = details: Homo sapiens, MV4-11, 72 h, read-out: GI50 (µM) a
Description: as §1

J82 = details: Homo sapiens, J82, 72 h, read-out: GI50 (µM) a
Description: as §1

K-562 = details: Homo sapiens, K562, 72 h, read-out: GI50 (µM) a
Description: as §1

NCI-H2228 = details: Homo sapiens, NCI-H2228, 72 h, read-out: GI50 (µM) a
Description: as §1

SK-HEP-1 = details: Homo sapiens, SK-HEP1, 72 h, read-out: GI50 (µM) a
Description: as §1

MKN45 = details: Homo sapiens, MKN-45, 72 h, read-out: GI50 (µM) a
Description: as §1

Which GI50 (8505C) does the source give for `COc1cc(CCc2cc(NC(=O)c3ccc(N4C[C@@H](C)N[C@@H](C)C4)cc3)n[nH]2)cc(OC)c1` [AZD4547] here?
Its GI50 is 14.7 µM.

And the GI50 (HuH-7)?
The GI50 was 1.35 µM.

What about the GI50 (NCI-H1975) of the same compound?
The GI50 was 28.9 µM.

What about the GI50 (GIST-T1) of the same compound?
Its GI50 is 1.09 µM.

What about the GI50 (C8161) of the same compound?
The GI50 was 11.1 µM.

What about the GI50 (MDA-MB-468) of the same compound?
Its GI50 is 11.5 µM.

And the GI50 (MV-4-11)?
The GI50 was 0.93 µM.

And the GI50 (J82)?
Its GI50 is 9.54 µM.

What about the GI50 (K-562) of the same compound?
The GI50 was 17.1 µM.

What about the GI50 (NCI-H2228) of the same compound?
Its GI50 is 17.2 µM.

What about the GI50 (SK-HEP-1) of the same compound?
The GI50 was 12.6 µM.

What about the GI50 (MKN45) of the same compound?
The GI50 was 12 µM.
